As a reminder, the EC50 is the concentration at which the effect is half-maximal.

Where a name gives a salt, the structure may show the parent alone.

The nature of this experiment: Free radical-scavenging/antioxidant assay (DPPH). The settings on record: 50 μM DPPH in 80% methanol, absorbance at 520 nm, 24 h time point (steady state). In kind it is biochemical. The procedure:
Nitrone compounds of the present invention were tested for their free-radical scavenging/antioxidant activity in an in vitro assay that was accepted by those skilled in the art as a model for conditions involving the generation of free radicals. The assay was based on a reaction between a free-radical donor, 2,2-diphenyl-1-picrylhydrazyl (DPPH), and a radical scavenger/antioxidant to be tested for free-radical scavenging activity. Upon donation of the free-radical electron to the purported radical scavenger, the peak vwasible absorbance of DPPH (515-520 nm) decreases so that optical density readings at thwas part of the vwasual spectrum reflect the progression of the following reaction: DPPH•+AH →DPPH—H+A• where AH was a hypothetical radical scavenger/antioxidant. The assay was based on a protocol originally detailed in Brand-Williams, W. et al., 1995, Use of a Free Radical Method to Evaluate Antioxidant Activity, Lebensm. Wwass. Technol., 28:25-30, with further modifications described in L. R. Fukumoto and G. Mazza, 2000, Assessing Antioxidant and Prooxidant Activities of Phenolic Compounds, J. Agric. Food Chem., 48:3597-3604.
The antioxidant assay was performed using Perkin-Elmer 96-well, clear-bottom, black-wall plates (ordered from E & K Scientific Products) and a Tecan Safire absorbance plate reader. The positive controls were Trolox (6-hydroxy-2,5,7,8-tetramethylchromane-2-carboxylic acid, Sigma-Aldrich), BHA (2(3)-tert-butylhydroquinone monomethyl ether, Sigma-Aldrich), PBN (C-(phenyl)-N-(tert-butyl)nitrone, Sigma-Aldrich) and S-PBN (C-(2-sulfophenyl)-N-(tert-butyl)nitrone, sodium salt, prepwered according to E. G. Janzen and R. V. Shetty, 1979, Tetrahedron Lett., 35: 3229-32), and the negative control (i.e., vehicle) was DMSO. In brief, 2 μL of 100×DMSO stock of the desired final concentration of each control or nitrone compound to be tested in the same batch was added to a separate well. To each well was then added 198 μL of a freshly made 50 μM DPPH (Sigma-Aldrich) solution in 80% methanol using a multi-channel pipette. The absorbance was immediately read on the plate reader at 520 nm and thereafter read periodically to assess kinetics until all reactions reached completion (i.e., steady state). Since the steady-state point was 24 h, the assay results were shown from the 24 h time point. The absorbance at 520 nm (OD) was plotted versus the concentrations of the controls and nitrone compounds to assess dose-response and interpolate the EC50 values of the controls and test compounds.
Background: The DPPH test is a chemical assay of radical scavenging.
The molecule `COc1ccc(O)c(C(C)(C)C)c1` [BHA, 2(3)-tert-butylhydroquinone monomethyl ether, reference compound] registered an EC50 of 10 to 50 µM.

Regarding `CC(C)(C)/[N+]([O-])=C/COc1ccccc1` [Example 1, N-tert-Butyl-C-(phenoxymethyl)nitrone], the EC50 lay in the range of 10 to 50 µM.

With `[O-]/[N+](=C\COc1ccccc1)C1CCCCC1` [Example 2, N-Cyclohexyl-C-(phenoxymethyl)nitrone], the EC50 is 50 to 100 µM.

`[O-]/[N+](=C\COc1ccccc1)Cc1ccccc1` [Example 3, N-Benzyl-C-(phenoxymethyl)nitrone] had an EC50 of 10 to 50 µM.

The molecule `COc1ccc(OC/C=[N+](\[O-])C(C)(C)C)cc1` [Example 4, N-tert-Butyl-C-[(4-methoxy-phenoxy)methyl]nitrone] gave an EC50 of 10 to 50 µM.

The molecule `COc1ccc(OC/C=[N+](\[O-])C2CCCCC2)cc1` [Example 5, N-Cyclohexyl-C-[(4-methoxy-phenoxy)methyl]nitrone] had an EC50 below 10 µM.

`COc1ccc(OC/C=[N+](\[O-])Cc2ccccc2)cc1` [Example 6, N-Benzyl-C-[(4-methoxy-phenoxy)methyl]nitrone]: the EC50 is below 10 µM.

For `Cc1ccc(C(C)C)c(OC/C=[N+](\[O-])C(C)(C)C)c1` [Example 7, N-tert-Butyl-C-[(2-isopropyl-5-methyl-phenoxy)methyl]nitrone], the EC50 was 50 to 100 µM.

As to `Cc1ccc(C(C)C)c(OC/C=[N+](\[O-])C2CCCCC2)c1` [Example 8, N-Cyclohexyl-C-[(2-isopropyl-5-methyl-phenoxy)methyl]nitrone], the concentration for a half-maximal effect (EC50) is 10 to 50 µM.

`Cc1ccc(C(C)C)c(OC/C=[N+](\[O-])Cc2ccccc2)c1` [Example 9, N-Benzyl-C-[(2-isopropyl-5-methyl-phenoxy)methyl]nitrone] came in with an EC50 of 50 to 100 µM.

For the molecule `Cc1ccc(SC/C=[N+](\[O-])C(C)(C)C)cc1` [Example 10, N-tert-Butyl-C-[(4-methyl-thiophenoxy)methyl]nitrone], the EC50 is 10 to 50 µM.

On to `CC(C)(C)/[N+]([O-])=C/COc1ccccn1` [Example 11, N-tert-Butyl-C-(pyridin-2-yloxy)methyl nitrone], for which the EC50 was 10 to 50 µM.

The molecule `[O-]/[N+](=C\COc1ccccn1)C1CCCCC1` [Example 12, N-Cyclohexyl-C-(pyridin-2-yloxy)methyl nitrone] displayed an EC50 below 10 µM.

As to `[O-]/[N+](=C\COc1ccccn1)Cc1ccccc1` [Example 13, N-Benzyl-C-(pyridin-2-yloxy)methyl nitrone], the concentration giving a half-maximal response (EC50) is below 10 µM.

On to `CC(C)(C)/[N+]([O-])=C/COc1nccc2ccccc12` [Example 14], for which the EC50 lay within 50 to 100 µM.

As for `[O-]/[N+](=C\COCc1ccccc1)C1CCCCC1` [Example 15, N-Cyclohexyl-C-(benzyloxy)methyl nitrone], the concentration for a half-maximal effect (EC50) lay in the range of 10 to 50 µM.

`[O-]/[N+](=C\COCc1ccccc1)Cc1ccccc1` [Example 16, N-Benzyl-C-(benzyloxy)methyl nitrone]: the EC50 was in the range of 50 to 100 µM.

As for `CC(C)(C)/[N+]([O-])=C/CCOc1ccccc1` [Example 17, N-tert-Butyl-C-2-(phenoxy)ethyl nitrone], the EC50 was in the range of 10 to 50 µM.

The molecule `[O-]/[N+](=C\CCOc1ccccc1)C1CCCCC1` [Example 18, N-Cyclohexyl-C-2-(phenoxy)ethyl nitrone] had a half-maximal effective concentration (EC50) above 1000 µM.

The molecule `[O-]/[N+](=C\CCOc1ccccc1)Cc1ccccc1` [Example 19, N-Benzyl-C-2-(phenoxy)ethyl nitrone] registered an EC50 of 100 to 1000 µM.

Take `CC(C)(C)/[N+]([O-])=C/CCSc1ccccc1` [Example 20, N-tert-Butyl-C-2-(phenylsulfanyl)ethyl nitrone]: the EC50 is below 10 µM.

On to `[O-]/[N+](=C\CCSc1ccccc1)Cc1ccccc1` [Example 21, N-Benzyl-C-2-(phenylsulfanyl)ethyl nitrone], for which the EC50 fell in the range of 10 to 50 µM.

`CC(C/C=[N+](\[O-])C(C)(C)C)Sc1ccccc1` (stereo not drawn) [Example 22, N-tert-Butyl-C-2-(phenylsulfanyl)propyl nitrone]: the EC50 was below 10 µM.

Molecule `CC(C/C=[N+](\[O-])C1CCCCC1)Sc1ccccc1` (stereo not drawn) [Example 23, N-Cyclohexyl-C-2-(phenylsulfanyl)propyl nitrone] yielded an EC50 of 10 to 50 µM.

With `CC(C/C=[N+](\[O-])Cc1ccccc1)Sc1ccccc1` (stereo not drawn) [Example 24, N-Benzyl-C-2-(phenylsulfanyl)propyl nitrone], the EC50 was below 10 µM.

`CC(C)(C)/[N+]([O-])=C/CCOc1ccccn1` [Example 25, N-tert-Butyl-C-2-(pyridin-2-yloxy)ethyl nitrone] had an EC50 of 10 to 50 µM.

`CC(C)(C)/[N+]([O-])=C/COCc1ccccc1` [Example 26, N-tert-Butyl-C-(benzyloxy)methyl nitrone] gave an EC50 of 10 to 50 µM.

As to `CC(C)(C)/[N+]([O-])=C/c1ccccc1` [PBN, C-(phenyl)-N-(tert-butyl)nitrone, reference compound], the EC50 was above 1000 µM.

As to `CC(C)(C)/[N+]([O-])=C/c1ccccc1S(=O)(=O)O` [SPBN, C-(2-sulfophenyl)-N-(tert-butyl)nitrone, sodium salt, reference compound], the EC50 is above 1000 µM.

As to `Cc1c(C)c2c(c(C)c1O)CCC(C)(C(=O)O)O2` (stereo not drawn) [Trolox, 6-hydroxy-2,5,7,8-tetramethylchromane-2-carboxylic acid, reference compound], the EC50 was below 10 µM.

The values above are taken from US20050192281A1, “Nitrone compounds, prodrugs and pharmaceuticals compositons of the same to treat human disorders” (priority 2003, published 2005).
